The values below come from patent US12039796B2, “Method for classifying cells” (Sartorius BioAnalytical Instruments, Inc., priority 2019, dated 2024).

Assay [1] relates to HT1080 fibrosarcoma. As to the kind of experiment: HT1080 fibrosarcoma apoptosis time course, multiplexed NucLight Red (viability) and Caspase 3/7 Green (apoptosis) readouts with cell-by-cell analysis. In kind it is cell-based. On the procedure: Example implementations permit cell health to be tracked in sub-populations over time. […] Cell health was determined with multiplexed readouts of Incucyte® NucLight Red (nuclear viability marker) and non-perturbing Incucyte® Caspase 3/7 Green Reagent (apoptotic indicator). […] Values shown are the mean±SEM of 3 wells.
Cell health was determined with multiplexed readouts of Incucyte® NucLight Red (nuclear viability marker) and non-perturbing Incucyte® Caspase 3/7 Green Reagent (apoptotic indicator). […] Values shown are the mean±SEM of 3 wells.

Assay [2] relates to A549 cells. As to the kind of experiment: A549 cell death concentration response, cells classed Dead or Live by Annexin V fluorescence or by label-free trained model. The assay is classed as cell-based. To be noted: Homo sapiens, A549, 72 h, 0.1-10 μM, FIG. 16C. As to the method:
The classification methods described herein facilitate classification of cells with an accuracy that approximates the accuracy of fluorophore-based methods. This allows for accurate classification without the expense, complexity, or experimental confounding effects that may be associated with the use of fluorescent labels. In an experiment, A549 cells were treated with increasing concentrations of the cytotoxic compound camptothecin (0.1-10 μM) for 72 h in the presence of Annexin V reagent. The cells were classed as Dead or Live based on fluorescence Annexin response (live cells=low fluorescence, dead cells=high fluorescence). The metric-based methods described herein were used to train a model using label-free features of dead (10 μM, 72 h) and live (vehicle, 0-72 h) cells.

[3] abbreviates: HT1080, after treatment, FIG. 6C.

Molecules are shown by their SMILES. Where two headings read alike, the source gives them in different places.

Consider `C[C@@H]1C[C@@H]([C@H](O)CC2CC(=O)NC(=O)C2)C(=O)[C@@H](C)C1` [CHX, cyclohexamide], for which, in assay [1] (HT1080, after treatment, FIG. 6G), the apoptosis entry is listed as “lack of apoptosis”. The cell counts result in assay [1] (HT1080, after treatment, FIG. 6G (data not shown)) is “decrease in cell counts”.
Turning to `CC[C@@]1(O)C(=O)OCc2c1cc1n(c2=O)Cc2cc3ccccc3nc2-1` [camptothecin], in assay [2] (Annexin V fluorescence-based classification, read-out: Annexin V EC50 (% death)), the EC50 was determined as 660 nM. In addition, the concentration giving a half-maximal response (EC50) in assay [2] (label-free metric-based trained model classification, read-out: Label-free EC50 (% death)) is 530 nM. Further, in assay [1] (HT1080, after 24 hours, FIG. 6C), the “green fluorescence (late apoptosis)” value is given as “increasing green fluorescence after 24 hours indicating late apoptosis”. For the same molecule, in assay [1] (setting [3]), the “red and green fluorescence (early apoptosis)” value is “increasing red and green fluorescence indicating early apoptosis”; the “red population (NucLight Red, viable cells)” value is listed as “decrease in the red population”.

As a reminder, the EC50 is the concentration that produces a half-maximal response.
